Reference: patent US8821938B2, “Porous drug matrices and methods of manufacture thereof” (Acusphere, Inc., priority 1999, dated 2014)

What was measured:
Type in all cases: physicochemical
[1] = Drug integrity post processing by HPLC
Description: Drug integrity post processing was assessed by High Pressure Liquid Chromatography (“HPLC”) (Hewlett Packard Series 1100 HPLC). […] For paclitaxel, the chromatographic conditions included a Nucleosil column (5:m, C18, 100A, 250×4.6 mm), a mobile phase of 2 mM H3PO4/Acetonitrile (2:3) at a flow rate of 1.5 mL/min, UV detection at 227 nm, and a run time of 25 min.

[2] = Density of dry powder by Transaxial Pressure (TAP), Micromeritics GeoPyc 1360; details: consolidation force of 8 Newtons
[3] = Particle size and surface area of drug particles in wetted matrices, Coulter Multisizer II; details: reconstituted in aqueous media; electrolyte pre-saturated with drug
Description: Particle size analysis was performed using the Coulter Multisizer II with a 50 micron aperture using siphon mode. Electrolyte was pre-saturated with the drug of interest, and filtered through a 0.22 micron filter prior to addition of lots for analysis to ensure that no portion of the drug within the lot would dissolve during the analysis.

| SMILES | Purity (drug integrity post processing) [1] | Density [2] | Size (mean particle size of drug particles) [3] | Surface Area (total surface area of drug particles) [3] |
| --- | --- | --- | --- | --- |
| COC1=CC(=O)C[C@@H](C)[C@]12Oc1c(Cl)c(OC)cc(OC)c1C2=O [Griseofulvin Bulk, griseofulvin] | 95.7% | 0.80 g/mL | 2.42 microns | 0.88 m^2/mL of microparticles |
| COc1ccc2cc([C@H](C)C(=O)O)ccc2c1 [Naproxen Bulk, naproxen] | – | – | 2.89 microns | 0.66 m^2/mL of microparticles |
| CC(=O)O[C@H]1C(=O)[C@@]2(C)[C@H]([C@H](OC(=O)c3ccccc3)[C@]3(O)C[C@H](OC(=O)[C@H](O)[C@@H](NC(=O)c4ccccc4)c4ccccc4)C(C)=C1C3(C)C)[C@]1(OC(C)=O)CO[C@@H]1C[C@@H]2O [Paclitaxel Bulk, paclitaxel] | 100% | – | – | – |
| C[C@]12C=CC(=O)C=C1CC[C@@H]1[C@@H]2C(=O)C[C@@]2(C)[C@H]1CC[C@]2(O)C(=O)CO [Prednisone Bulk, prednisone] | 100% | 0.68 g/mL | 2.07 microns | 1.43 m^2/mL of microparticles |
